Read-outs that look alike come from different tables or passages of the source.
What was measured:
[1] = test system: bloodstream forms of Trypanosoma brucei brucei; assay: resazurin-based antitrypanosomal inhibition assay; assay type: cell-based; conditions: for pIC50 T. b. b.: Table 3
Method: Parasites were axenically cultivated in sterile vented flasks containing complete Hirumi’s modified Iscove’s medium 9 (HMI-9) [500 mL IMDM (Iscove’s modified Dulbecco’s medium) (Gibco, Waltham, MA, USA) supplemented with 10% (v/v) heat-inactivated fetal bovine serum (HIFBS) (Sigma Aldrich), 10% (v/v) serum plus (Sigma Aldrich), HMI-9 supplement (1 mM hypoxanthine, 0.16 mM thymidine, 50 µM bathocuproine disulfonic acid, 1.5 mM cysteine, 1.25 Mm pyruvic acid, 0.2 mM 2-mercaptoethanol (Sigma Aldrich)), and 1% (v/v) penicillin–streptomycin (Sigma Aldrich) and incubated at 37 °C in a 5% CO2 atmosphere.
The in vitro inhibitory potency of the 400 MMVPB compounds against bloodstream forms of Trypanosoma brucei brucei was evaluated using the resazurin-based inhibition assay as previously described. Briefly, parasites at their mid-logarithmic growth phase were counted, and the cell density was adjusted with fresh complete HMI-9 medium to 2 × 10^5 trypanosomes per mL. Then, 90 µL of parasite suspension was then distributed into the wells of 96-well flat-bottomed plates containing 10 µL of compounds for a final test concentration of 10 µM. […] Each assay plate was set up in duplicate and repeated two times. The percent parasite inhibition was determined for each compound based on fluorescence readouts relative to the mean fluorescence of negative control wells.
y = 100/[1+ 10^(logIC50/99-x)H], where H is the hill coefficient or slope factor [60].

[2] = in vitro; conditions: African green monkey
Method: (§1) The resulting pellet was resuspended and counted in a Neubauer chamber in the presence of trypan blue to exclude nonviable cells colored in blue. Once the cell load was estimated, they were either used for the next passage in a new flask or processed for the cytotoxicity assay.
(§2) Briefly, Vero cells at a density of 10^4 cells per well were plated in 100 µL of complete DMEM and incubated overnight to allow cell attachment. Plates were then controlled under an inverted fluorescence microscope (Lumascope LS520) to ensure adherence, sterility and cell integrity. Thereafter, culture medium from each well was carefully emptied, and plates were filled with 90 µL of fresh complete medium followed by the addition of 10 µL of serial 5-fold dilutions of compound solutions. […] Fluorescence was then read using a Magelan Infinite M200 fluorescence multiwell plate reader (Tecan) with excitation and emission wavelengths of 530 and 590 nm, respectively. The percentage of cell viability was calculated from readouts, and the median cytotoxic concentration (CC50) for each compound was deduced from concentration–response curves using GraphPad Prism 8.0 software as described above. Selectivity indexes were then determined for each test substance as follows: SI = CC50(Vero cells)/IC50(T. brucei brucei).

[3] = test system: Vero cells; assay: cytotoxicity against Vero cells (resazurin viability assay); conditions: read-out: CC50 Vero; Table 3
Method: as §1, §2

[4] = Trypanosoma brucei, Table 4, analogs of MMV675968, solid material, read-out: IC50 ± SD T. b. b.
[5] = Trypanosoma brucei, Table 4, negative log of IC50 in molar, read-out: pIC50 T. b. b. (converted)
[6] = Table 3, MMVPB compounds with known potency against other diseases, read-out: IC50 ± SD T. b. b.

Structure (SMILES)	IC50 [1, 6] [µM]	pIC50 T. b. b. ([1]; negative log of IC50 in molar)	CC50 [3] [µM]	also measured
COc1ccc(NCc2ccc3nc(N)nc(N)c3c2Cl)cc1OC [Analog 2]				IC50 [1, 4]: 2.4 ± 0.07 µM; IC50 [1, 5]: 2.4 µM; CC50 at 48 h [2]: 18.2 ± 3.08 µM
COc1ccccc1NCc1ccc2nc(N)nc(N)c2c1Cl [Analog 3]				IC50 [1, 4]: 3.2 ± 0.03 µM; IC50 [1, 5]: 3.24 µM; CC50 at 48 h [2]: 20.4 ± 0.7 µM
COc1ccc(NCc2ccc3nc(N)nc(N)c3c2Cl)cc1 [Analog 4]				IC50 [1, 4]: 2.5 ± 0.15 µM; IC50 [1, 5]: 2.51 µM; CC50 at 48 h [2]: 16.9 ± 0.2 µM
COc1cc(NC(C)CCCN)c2ncccc2c1 (stereo not drawn) [MMV000023, Primaquine, reference compound]				IC50 ([1]; Trypanosoma brucei, Table 1, reference drugs included in MMVPB, read-out: IC50 ± SD T. b. b.): 8.4 ± 0.01 µM; IC50 ([1]; Trypanosoma brucei, Table 1, negative log of IC50 in molar, read-out: pIC50 T. b. b. (converted)): 8.51 µM
CNCCC(Oc1ccc(C(F)(F)F)cc1)c1ccccc1 (stereo not drawn) [MMV001561, fluoxetine, reference compound]				CC50 at 48 h [2]: 41.5 ± 1 µM
CN(C)c1cc(NC(=O)Nc2ccccc2)c2ccccc2n1 [MMV006901]	8.45 ± 0.05	5.07	14.6 ± 0.02	
COc1cc(-c2cc(-c3ccc(S(C)(=O)=O)cc3)cnc2N)ccc1O [MMV010576]	1.5 ± 0.3	5.82	> 100	
COc1ccc(CCN2CCC(NCc3cccc(N(C)C)c3)CC2)cc1 [MMV011511]	8.94 ± 0.7	5.05	> 100	
Cc1cc(Nc2ccncc2)n2nc(C)c(-c3ccccc3Cl)c2n1 [MMV016136]	8.61 ± 0.3	5.06		
COc1ccc(-c2cncc3ccc(C(=O)NCCCn4ccnc4)nc23)cc1 [MMV020670]	1.9 ± 0.02	5.72		
CN1CCC(NCc2cccc(-c3ccc(S(=O)(=O)NCc4ccccc4)cc3)c2)CC1 [MMV022029]	1.7 ± 0.7	5.76	13.1 ± 0.2	
O=C(Nc1ccc(N2CCNCC2)cc1)c1ccn2ncc(-c3cccc(Cl)c3)c2n1 [MMV022478]	1.7 ± 0.01	5.76	11.42 ± 0.07	
Nc1nccc2ccc(-c3ccc4nccn4c3)cc12 [MMV023233]	8.43 ± 0.06	5.07	29.8 ± 0.7	
c1cncc(NCc2ccc(-c3cc4ccncc4cc3OC3CCNCC3)s2)c1 [MMV023969]	8.09 ± 0.3	5.09	26.3 ± 0.4	
O=C(Nc1ccccc1)c1ccc(-c2cc3ccncc3cc2OC2CCNCC2)s1 [MMV024035]	1.8 ± 0.1	5.74	35.75 ± 0.08	
Cc1ccc2[nH]c(C3CCCNC3)c(-c3ccncc3)c2c1 (stereo not drawn) [MMV024311]	9.78 ± 0.2	5.00		
O=C(Nc1ccc(N2CCNCC2)nc1)c1oc(-c2ccccc2)nc1C(F)(F)F [MMV024937]	1.4 ± 0.5	5.85	14.6 ± 0.6	
OCCc1ccc(Nc2nccc(-c3nnc4ccccn34)n2)cc1 [MMV028694]	1.8 ± 0.1	5.74	10.36 ± 0.1	
CC(=O)N1CCc2cc3nc(C)cc(C)c3cc21 [MMV054312]	1.29 ± 0.42	5.88	> 100	
Cc1cc(C)nc(-n2nc(C)cc2Nc2ccccc2)n1 [MMV062221]	1.7 ± 0.6	5.76		
O=C(C(Cc1c[nH]c2ccccc12)NS(=O)(=O)c1ccc(Cl)cc1)N1CCCCC1 (stereo not drawn) [MMV085210]	0.9 ± 0.1		> 100	
CCOC(=O)c1c(NC(=O)c2c(F)c(F)c(F)c(F)c2F)sc(C(N)=O)c1C [MMV153413]	1.7 ± 0.1	5.76	> 100	

Structure (SMILES)	IC50 [1, 6] [µM]	pIC50 T. b. b. ([1]; negative log of IC50 in molar)	CC50 [3] [µM]	also measured
CC(C)(C)c1cnc(NC(=O)c2ccccc2O)s1 [MMV495543]	0.7 ± 0.25			
Brc1cncc(-c2cc(NCCCn3ccnc3)nc(-c3ccccc3)n2)c1 [MMV661713]	1.9 ± 0.02	5.72	> 100	
O=C(NCCN1CCCC1)c1cc(NCCCCN2CCC(F)(F)CC2)nc2ccc(Cl)cc12 [MMV667494]	1.3 ± 0.5	5.88	> 100	
COc1ccc(N(CCc2cccc(C)n2)C(=O)C2CCCCC2)cc1 [MMV675996]	0.8 ± 0.02			
CC(Oc1ccccc1)C(=O)Nc1nc(-c2ccccn2)cs1 (stereo not drawn) [MMV676411]	9.44 ± 0.09	5.02		
O=C(Nc1nc(-c2ccccn2)cs1)c1cncn1-c1ccccc1 [MMV676512]	1.9 ± 0.07	5.72		
NC(=O)c1cc(-c2ccsc2)ccc1OCCOc1ccccc1 [MMV687138]	0.5 ± 0.01		> 100	
Nc1nc2cc(-c3cncc(Oc4ccc(F)cc4)c3)ccc2[nH]1 [MMV687248]	0.5 ± 0.07		> 100	
Cn1c(=O)c2c(S(C)(=O)=O)snc2n(C)c1=O [MMV687251]	1.9 ± 0.01	5.72	6.4 ± 2	
COc1cccc(-c2nc3c(N4CCCC4)cccc3n2CC2CCCN2)n1 (stereo not drawn) [MMV687703]	1.7 ± 0.06	5.76	> 100	
Cc1cnc(N2CCN[C@@H](Cc3ccccc3)C2)nc1Oc1ccc(-n2ccnc2)cc1 [MMV687765]	2.3 ± 0.3	5.64	> 100	
O=C(Nc1ccc(C(F)(F)F)c(C(F)(F)F)c1)c1cc(Cl)ccc1O [MMV687807]	0.5 ± 0.04		11 ± 1.3	
CN1CCN(CCCOc2ncc(Nc3ncc(-c4ccc(C(F)(F)F)c(F)c4)nc3C(N)=O)cn2)CC1 [MMV687812]	1.7 ± 0.1	5.76	2.66 ± 0.3	
CCc1ccc(S(=O)(=O)Nc2cc(CN3CCN(CCC(C)C)CC3)ccc2C)cc1 [MMV688124]	2.9 ± 0.08	5.53	> 100	
CC(C)n1nc(-c2cc3c(Cl)cccc3[nH]2)c2c(N)ncnc21 [MMV688417]	4.38 ± 0.9	5.36	13.6 ± 2.9	
CN1CCC(c2cc(-c3ccncc3)c(-c3ccc(F)cc3)[nH]2)CC1 [MMV688703]	3.18 ± 1.3	5.49		
CS(=O)(=O)c1ccc(C(=O)N(CC2CCCO2)c2nc3ccccc3s2)cc1[N+](=O)[O-] (stereo not drawn) [MMV688761]	8.33 ± 0.09	5.08	> 100	
CNc1nnc(Sc2cnn(-c3ccccc3)c(=O)c2Cl)s1 [MMV688763]	0.8 ± 0.1		8.14 ± 0.01	
Cc1[nH]c2ccccc2c1C(c1cccs1)N1CCN(C)CC1 (stereo not drawn) [MMV688768]	8.36 ± 0.08	5.07	> 100	
CCOc1ccc2cc(-c3nn(CC4CCN(C)CC4)c4ncnc(N)c34)ccc2c1 [MMV688854]	8.5 ± 0.06	5.07	13.4 ± 1.5	
COc1cc([C@@H]2c3cc4c(cc3[C@H](O)[C@H]3COC(=O)[C@H]23)OCO4)cc(OC)c1OC [Podophyllotoxin, reference compound]				CC50 at 48 h [2]: 0.43 ± 0.14 µM

Reference: article PMC9571290, “Preliminary Structure–Activity Relationship Study of the MMV Pathogen Box Compound MMV675968 (2,4-Diaminoquinazoline) Unveils Novel Inhibitors of Trypanosoma brucei brucei” (Molecules, 2022)
